Test results as given in patent US20070196294A1, “Photostable sunscreen compositions comprising dibenzoylmethane compound UV-A filters and s-triazine compounds” (L'OREAL, priority 2006, published 2007).

Assay: Photostability of formulations on PMMA sheets exposed in a Heraeus Suntest
Assay type: physicochemical
Details: formulations 9 and 10 versus control formulation 8
Description: Method for Measuring the Photostability:
For each formulation, constituents given in % by weight, 3 test samples and 3 control samples were prepared. 2 mg/cm^2 of formulation are deposited on poly(methyl methacrylate) sheets using a spatula.
The test sheets are exposed for 38 min to a Heraeus Suntest equipped with a xenon lamp having a UV-A flux of 9.51×10^−3 W/cm^2 and a UV-B flux of 5.43×10^−4 W/cm^2. The control sheets are stored for the same time and at the same temperature (38-40° C.) in darkness.
At the end of this time, the screening agents are extracted by immersing each sheet in 50 g of methanol and by subjecting them to ultrasound for 15 min in order to provide for good extraction. The solutions obtained are analyzed by HPLC and UV spectrophotometry.
For each formulation tested, the residual 4-(tert-butyl)-4′-methoxydibenzoylmethane level after exposure is given in the ratio of its optical density (OD) in the exposed sample to its unexposed optical density (OD). The positions adopted are the absorption maxima corresponding to butyl-methoxy-dibenzoylmethane: λmax=358 nm.

CCCCOC(=O)c1ccc(Nc2nc(Nc3ccc(C=C(C(=O)OCC(C)(C)C)C(=O)OCC(C)(C)C)cc3)nc(Nc3ccc(C=C(C(=O)OCC(C)(C)C)C(=O)OCC(C)(C)C)cc3)n2)cc1 [Example 1, 2,4-bis(dineopentyl 4′-aminobenzalmalonate)-6-(butyl 4″-aminobenzoate)-s-triazine]
Photostability of the dibenzoylmethane in the presence of the compound (result in words): improvement in the photostability of the dibenzoylmethane
